Data published in US20230255904A1, “PHARMACEUTICAL COMPOSITION FOR PREVENTING OR TREATING CANCER COMPRISING NAPHTHOQUINONE-BASED COMPOUND AND IMMUNE CHECKPOINT INHIBITOR AS ACTIVE INGREDIENTS” (NADIANBIO LTD., priority 2020, published 2023).

Key:
MC38 = assay: Tumor growth inhibition, animal model for colorectal cancer I (MC38); assay type: in vivo, C57BL/6 mice
Method: (§1) All mice used in the experiments were raised in a sterile animal room with constant temperature (22° C. to 26° C.) and constant humidity (55% to 60%), acclimatized for 1 week while sufficiently supplying typical solid feed (Samtako Inc., Korea) and water, and then used. All experiments were conducted after obtaining approval from the Institutional Animal Care and Use Committee in accordance with the laboratory animal care and ethics regulations of the Institutional Animal Care and Use Committee of Wonkwang University.
(§2) 7-week-old BALB/c or C57BL/6 mice were used, and subcutaneously inoculated using a 1-mL insulin syringe within 30 minutes after mixing the mouse cancer cells with 0.2 mL of PBS.
(§3) After the cancer cell line was subcutaneously implanted, the administration of drugs was started when the size of the cancer reached 50 to 100 mm^3. The volumes (mm^3) of the tumors, which were generated after the inoculation, were measured at intervals of 3 days using a caliper, calculation was performed using the formula of […], and then the results thereof were compared.
(§4) In addition, sole administration or co-administration of respective drugs was performed according to the administration schedules listed in Tables 4 to 34 below, the tumor volumes were then measured according to the tumor proliferation assessment method described in Example 1.1, the tumor growth inhibition rates (TGI (O)=(Vc−Vt)/Vc×100(%); Vc: tumor volume of control, Vt tumor volume of experimental group) were calculated based the tumor volumes, and the results thereof are shown in the respective tables and FIGS. 1 to 31.

LL/2 = assay: Tumor growth inhibition, animal model for lung cancer II (LL/2); assay type: in vivo, C57BL/6 mice; settings: Experimental Example 31; LL/2 lung cancer II; dunnione 40 mg/kg oral daily from 6th day; anti-PD-1 antibody 100 μg/head, carboplatin 25 mg/kg + pemetrexed 100 mg/kg intraperitoneal 2 times a week, 3 times in total
Method: as §1, §2
(§5) After the cancer cell line was subcutaneously implanted, the administration of drugs was started when the size of the cancer reached 50 to 100 mm^3. The volumes (mm^3) of the tumors, which were generated after the inoculation, were measured at intervals of 3 days using a caliper, calculation was performed using the formula of […], and then the results thereof were compared. […]

B16F10 = assay: Tumor growth inhibition, animal model for skin cancer (B16F10); assay type: in vivo,  mice
Method: as §1, §2, §3, §4

Hepa1-6 = assay: Tumor growth inhibition, animal model for liver cancer (Hepa1-6); assay type: in vivo, C57BL/6 mice; settings: Dunnione 40 mg/kg oral every day from 11th day, Anti-CTLA4 antibody 200 μg/head i.p. 2 times a week from 11th day
Method: as §1, §2, §5

[1] = tested on: spontaneous non-small cell lung cancer (Kras^LSL-G12D/+; Trp53^flox/flox mice); assay: Tumor proliferation in genetically engineered mouse models for spontaneous non-small cell lung cancer (Micro-CT); assay type: in vivo; settings: compared to before the drug administration, Micro-CT imaging; dunnione 40 mg/kg, carboplatin 25 mg/kg, paclitaxel 10 mg/kg, anti-PD-1 antibody 200 μg/head
Excerpt: Models for spontaneous non-small cell lung cancer were induced by constructing conditional mutant mice (Kras^LSL-G12D/+; Trp53^flox/flox mice) having Ras activation and p53 variation through crossbreeding of conditional K-Ras activation variation-genetically engineered mice and conditional p53 variation-genetically engineered mice, and then performing intratracheal instillation of adenoviruses (Ad5-CMV-Cre; 2.5×10^7 PFU/infectious units), into which Cre genes were introduced, into the lung. […]
After sole administration or co-administration of respective drugs was performed according to the administration schedule listed in Table 38 below and FIG. 35, the tumor growth rate for each group compared to before the drug administration was measured at the 6th week through Micro-CT imaging, and the results thereof were summarized in Table 39.

RENCA = assay: Tumor growth inhibition, animal model for renal cancer (RENCA); assay type: in vivo, BALB/c mice
Method: as §1, §2, §3, §4

CT26 = assay: Tumor growth inhibition, animal model for colorectal cancer II (CT26); assay type: in vivo,  mice; settings: Dunnione 40 mg/kg oral every day from 6th day, 4 times
Method: as §1, §2, §5

KLN205 = assay: Tumor growth inhibition, animal model for lung cancer I (KLN205); assay type: in vivo, DBA/2 mice; settings: Experimental Example 30, dunnione 40 mg/kg oral daily from 5th day, anti-PD-1 antibody 100 μg/head, carboplatin 25 mg/kg + paclitaxel 10 mg/kg intraperitoneal 2 times a week, 4 times in total
Method: as §1, §2, §5

4T1 = assay: Tumor growth inhibition, animal model for breast cancer I (4T1); assay type: in vivo, BALB/c mice
Method: as §1, §2, §3, §4

## CC1OC2=C(C(=O)C(=O)c3ccccc32)C1(C)C (stereo not drawn) [Dunnione, 2,3,3-trimethyl-2H-benzo[g][1]benzofuran-4,5-dione]
MC38; Experimental Example 1, Dunnione 40 mg/kg oral every day from 5th day, Anti-PD-1 antibody 200 μg/head i.p. at intervals of 3 days from 5th day, 4 times, Oxaliplatin 6 mg/kg + 5-Fluorouracil 50 mg/kg i.p. once on 5th day
  TGI (%): 8.1%
MC38; Experimental Example 2, Dunnione 40 mg/kg oral every day from 5th day, Anti-CTLA4 antibody 200 μg/head i.p. at intervals of 3 days from 5th day, 4 times, Oxaliplatin 6 mg/kg + 5-Fluorouracil 50 mg/kg i.p. once on 5th day
  TGI (%): 7.6%
MC38; Experimental Example 3, Dunnione 40 mg/kg oral every day from 4th day, Anti-PD-1 antibody 100 ug/head + Anti-CTLA4 antibody 100 μg/head i.p. at intervals of 3 days from 4th day, 4 times, Oxaliplatin 6 mg/kg + 5-Fluorouracil 50 mg/kg i.p. once on 4th day
  TGI (%): 5.3%
MC38; Experimental Example 4, Dunnione 40 mg/kg oral every day from 7th day, Anti-LAG3 antibody 200 μg/head i.p. on 7th, 10th, 14th, 17th days, Oxaliplatin 6 mg/kg i.p. on 7th and 14th days
  TGI (%): 13.1%
MC38; Experimental Example 5, Dunnione 40 mg/kg oral every day from day of cancer cell implantation, Anti-PD-1 antibody 200 μg/head i.p. at intervals of 3 days from 7th day, 4 times
  TGI (%): 28.5%
MC38; Experimental Example 6, Dunnione 40 mg/kg oral every day from 7th day, Anti-PD-1 antibody 100 μg/head i.p. 2 times a week from 7th day, 4 times, Regorafenib 10 mg/kg oral every day from 7th day
  TGI (%): 36.8%
MC38; Experimental Example 7, Dunnione 40 mg/kg oral every day from 6th day, Anti-PD-1 antibody 100 μg/head i.p. 2 times a week from 6th day, 2 times, Abemaciclib 75 mg/kg oral every day from 6th day
  TGI (%): 9.9%
LL/2
  TGI (%): 23.5%
B16F10; Experimental Example 21, Dunnione 40 mg/kg oral every day from 6th day, Anti-PD-L1 antibody 200 μg/head i.p. 2 times a week from 6th day, 3 times
  TGI (%): 24.1%
B16F10; Experimental Example 22, Dunnione 40 mg/kg oral every day from 6th day, Anti-PD-L1 antibody 200 μg/head i.p. 2 times a week from 6th day, 3 times, Paclitaxel 14 mg/kg i.p. at intervals of 1 week from 6th day, 2 times
  TGI (%): 24.1%
B16F10; Experimental Example 23, Dunnione 40 mg/kg oral every day from 6th day, Anti-CTLA4 antibody 200 μg/head i.p. 2 times a week from 6th day, 4 times, Paclitaxel 14 mg/kg i.p. once on 6th day
  TGI (%): 16.7%
B16F10; Experimental Example 24, Dunnione 40 mg/kg oral every day from 7th day, Anti-CTLA4 antibody 100 μg/head i.p. 2 times a week from 7th day, 2 times, Regorafenib 3 mg/kg oral every day from 7th day
  TGI (%): 9.2%
B16F10; Experimental Example 25, Dunnione 40 mg/kg oral every day from 8th day, Anti-PD-1 antibody 100 μg/head i.p. 2 times a week from 8th day, 3 times, Vistusertib 15 mg/kg oral every day from 8th day
  TGI (%): 34.6%
B16F10; Experimental Example 26, Dunnione 40 mg/kg oral every day from 8th day, Everolimus 0.5 mg/kg oral every day from 8th day
  TGI (%): 31.5%
B16F10; Experimental Example 27, Dunnione 40 mg/kg oral every day from 8th day, Anti-PD-1 antibody 100 μg/head i.p. 2 times a week from 8th day, 3 times, Everolimus 0.5 mg/kg oral every day from 8th day
  TGI (%): 34.6%
Hepa1-6; Experimental Example 28, 4 times, Sorafenib 10 mg/kg oral every day from 11th day
  TGI (%): 29.1%
Hepa1-6; Experimental Example 29, 3 times, Everolimus 1 mg/kg oral every day from 11th day
  TGI (%): 22.4%
[1]
  Tumor growth rate (fold) at 6th week: 34.6 ± 54 fold
RENCA; Experimental Example 15, Dunnione 40 mg/kg oral every day from 7th day, Anti-CTLA4 antibody 200 μg/head i.p. at intervals of 3 days from 7th day, 7 times, Everolimus 250 μg/kg oral every day from 7th day
  TGI (%): 7.8%
RENCA; Experimental Example 16, Dunnione 40 mg/kg oral every day from 7th day, Sorafenib 10 mg/kg oral every day from 7th day
  TGI (%): 14.5%
RENCA; Experimental Example 17, Dunnione 40 mg/kg oral every day from 7th day, Anti-CTLA4 antibody 200 μg/head i.p. at intervals of 3 days from 7th day, 3 times, Sorafenib 10 mg/kg oral every day from 7th day
  TGI (%): 14.5%
RENCA; Experimental Example 18, Dunnione 40 mg/kg oral every day from 7th day, Anti-PD-1 antibody 100 μg/head i.p. 2 times a week from 7th day, 5 times, Everolimus 0.1 mg/kg oral every day from 7th day
  TGI (%): 5.2%
RENCA; Experimental Example 19, Dunnione 40 mg/kg oral every day from 7th day, Anti-CTLA4 antibody 200 μg/head i.p. 2 times a week from 7th day, 5 times, Sorafenib 10 mg/kg oral every day from 7th day
  TGI (%): 44.6%
RENCA; Experimental Example 20, Dunnione 40 mg/kg oral every day from 10th day, Anti-CTLA4 antibody 200 μg/head i.p. 2 times a week from 10th day, 5 times, Vistusertib 10 mg/kg oral every day from 10th day
  TGI (%): 33.2%
CT26; Experimental Example 8, Irinotecan 4.626 mg/kg + Leucovorin 10.28 mg/kg + 5-Fluorouracil 61.68 mg/kg i.p. 2 times a week from 6th day
  TGI (%): 21.2%
CT26; Experimental Example 9, Anti-PD-1 antibody 200 μg/head i.p. 2 times a week from 6th day
  TGI (%): 25.5%
KLN205
  TGI (%): 10.2%
4T1; Experimental Example 10, Dunnione 40 mg/kg oral every day from 5th day, Anti-CTLA4 antibody 200 μg/head i.p. at intervals of 3 days from 5th day, 4 times, Mitoxantrone 6 mg/kg i.p. once on 5th day
  TGI (%): 8.9%
4T1; Experimental Example 12, Dunnione 40 mg/kg oral every day from 7th day, Adriamycin 3.08 mg/kg + Cyclophosphamide 30.8 mg/kg + Paclitaxel 4.12 mg/kg i.p. at intervals of 1 week from 7th day, 3 times
  TGI (%): 23.6%
4T1; Experimental Example 13, Dunnione 40 mg/kg oral every day from 7th day, Docetaxel 4.06 mg/kg + Adriamycin 2.7 mg/kg + Cyclophosphamide 27 mg/kg i.p. at intervals of 1 week from 7th day, 4 times
  TGI (%): 16.1%
